# Assays:
# Type in all cases: cell-based
# [1] = tested on: Pseudomonas aeruginosa PAM 1723 (a strain highly expressing MexAB-OprM drug efflux pump); assay: Combined use of drug efflux pump inhibitor and disinfectant, broth dilution method
# Description: Effect of Combined Use of Drug Efflux Pump Inhibitor and Disinfectant
# Effects of a combined use of a drug efflux pump inhibitor and alkyldiaminoethylglycine hydrochloride (AEG, trade name: Tego 51) or chlorhexidine gluconate (CHG, trade name: Hibiten) on Pseudomonas aeruginosa PAM 1723 (a strain highly expressing MexAB-OprM drug efflux pump) was determined by the broth dilution method. The compound of Example 26 was added at a final concentration of 10 μg/ml to Mueller-Hinton broth (MHB) containing a disinfectant at a concentration after 2-fold serial dilution. The amount of the test bacteria inoculated was 1×10^6 CFU/ml, and after standing cultivation at 37° C. for 18 hours, the culture was observed by visual inspection. The minimum concentration that gave no turbidity as in the control of MHB was determined as MIC.
# [2] = tested on: Pseudomonas aeruginosa PAM 1723 strain highly expressing the drug efflux pump; assay: Effect of combined use with antimicrobial agent (levofloxacin, aztreonam) on multidrug resistant Pseudomonas aeruginosa; conditions: 18 hours, MHB; for MPC8 AZT: minimum concentration of test compound required to enhance antibacterial activity of aztreonam at 1/8 or less of MIC; for MPC4 LVFX: minimum concentration of test compound required to enhance antibacterial activity of levofloxacin applied at 1/4 of MIC; for MPC8 LVFX: minimum concentration of test compound required to enhance antibacterial activity of levofloxacin applied at 1/8 or less of MIC
# Source text: Effect of Combined Use with Antimicrobial Agent on Multidrug Resistant Pseudomonas aeruginosa
# As multidrug resistant Pseudomonas aeruginosa, Pseudomonas aeruginosa PAM 1723 strain highly expressing the drug efflux pump was used. As antimicrobial drugs for the combinational uses, levofloxacin (LVFX) as a quinolone antibacterial agent and aztreonam (AZT) as a monobactam antibiotic were used. Each of the compounds shown in Table 1 with Example No., which falls within the compounds of the present invention, was subjected to the measurement of its minimum concentration (μg/ml) that was required to enhance the antibacterial activity of levofloxacin when the test compound was used in combination with levofloxacin applied at a concentration of 1/4, or 1/8 or less of the minimum inhibitory concentration against the PAM 1723 strain. […] Effects as combinational uses for 18 hours was indicated for each of the drugs. Effects were determined by visually observing the turbidity of the medium. The Müller-Hinton broth (MHB, Difco) was used as a medium, and the inoculum of the bacteria was 1×10^6 CFU/ml.
# [3] = tested on: Pseudomonas aeruginosa wild strain PAM 1020; assay: Combined use of a pump inhibitor, levofloxacin (LVFX) and meropenem (MEPM) evaluated by the three-dimensional checker board method; conditions: for FIC index: PAM 1020
# Description: (1) Effect of Combined Used of a Pump Inhibitor, Levofloxacin (LVFX) and Meropenem (MEPM) Evaluated by the Three-Dimensional Checker Board Method
# The effect was measured by the three-dimensional checker board method by using Pseudomonas aeruginosa wild strain PAM 1020. The test strain was inoculated into Mueller-Hinton broth containing LVFX, MEPM (at 11 concentration levels and 0 μg/ml) and the compound of Example 26 (40-0.625 μg/ml and 0 μg/ml) at a concentration of 10^6 CFU/ml and cultured at 37° C. for 18 hours. Then, MIC was measured for sole and combined use. Measurement was performed by the checker board method and FIC index was calculated according to the following equation. FIC index=a/a0+b/b0+c/c0 wherein a0: MIC for Agent A used alone, a: MIC for Agent A when Agents A, B and C are used in combination, b0: MIC for Agent B used alone, b: MIC for Agent B when Agents A, B and C are used in combination, c0: MIC for Agent C used alone, c: MIC for Agent C when Agents A, B and C are used in combination.
# It was determined that there was synergistic effect when FIC index was 0.75 or less, additive effect or weak synergistic effect when the index was more than 0.75 but not more than 1.125, no effect of combined use when the index was more than 1.125 but not more than 3.0, and antagonistic effect when the index was more than 3.0.
structure (smiles),measurement,setting,value
"N=C(NCCCCCCNC(=N)NC(=N)Nc1ccc(Cl)cc1)NC(=N)Nc1ccc(Cl)cc1.O=C(O)[C@H](O)[C@@H](O)[C@H](O)[C@H](O)CO.O=C(O)[C@H](O)[C@@H](O)[C@H](O)[C@H](O)CO [CHG, chlorhexidine gluconate]",enhancement of activity of the disinfectant on PAM 1723,[1]; combined use with 10 μg/ml of the compound of Example 26,four times
same,MIC CHG Combined use,"[1]; combined with compound of Example 26 at 10 μg/ml, PAM 1723, 37° C. 18 hours",4 µg/mL
same,CHG Ratio of MIC values for single use of the disinfectant and combined use with the compound of Example 26,"[1]; compound of Example 26 at 10 μg/ml, PAM 1723",4
same,MIC CHG Single use,"[1]; disinfectant alone, PAM 1723, 37° C. 18 hours",16 µg/mL
"CC(C)c1csc(/C=C/c2ccn3c(=O)c(/C=C/C(=O)O)c(N4CCN(C(=O)[C@@H](N)CCCNC(=N)N)CC4)nc3c2)n1 [Example 78, (E)-3-{2-[4-((2 S)-2-Amino-5-{[amino(imino)methyl]amino}pentanoyl)-piperazino]-8-[(E)-2-(4-isopropyl-1,3-thiazol-2-yl)-1-ethenyl]-4-oxo-4H-pyrido[1,2-a]-pyrimidin-3-yl}-2-propenoic acid]",MPC8 AZT,[2],1 µg/mL
same,MPC4 LVFX,[2],0.5 µg/mL
same,MPC8 LVFX,[2],1 µg/mL
"CC(C)c1csc(CCc2ccn3c(=O)c(/C=C(\F)C(=O)O)c(N4CCOCC4)nc3c2)n1 [Example 135, (Z)-2-Fluoro-3-{8-[2-(4-isopropyl-1,3-thiazol-2-yl)ethyl]-2-morpholino-4-oxo-4H-pyrido[1,2-a]pyrimidin-3-yl}-2-propenoic acid]",MPC8 AZT,[2],8 µg/mL
same,MPC4 LVFX,[2],4 µg/mL
same,MPC8 LVFX,[2],16 µg/mL
"CC(C)c1csc(CCc2ccn3c(=O)c(/C=C4/SC(=O)NC4=O)c(N4CCOCC4)nc3c2)n1 [Example 141, 5-(1-{8-[2-(4-Isopropyl-1,3-thiazol-2-yl)ethyl]-2-morpholino-4-oxo-4H-pyrido[1,2-a]pyrimidin-3-yl}methylidene)-1,3-thiazolidine-2,4-dione]",MPC8 AZT,[2],2 µg/mL
same,MPC4 LVFX,[2],0.25 µg/mL
same,MPC8 LVFX,[2],16 µg/mL
CC(C)c1csc(CCc2ccn3c(=O)c(/C=C/C(=O)O)c(-c4ccncc4)nc3c2)n1 [Example 130],MPC8 AZT,[2],8 µg/mL
same,MPC4 LVFX,[2],2 µg/mL
same,MPC8 LVFX,[2],8 µg/mL
"CC(C)c1csc(/C=C/c2ccn3c(=O)c(/C=C/C(=O)O)c(OCC4CCOC4)nc3c2)n1 (centres unmarked) [Example 117, (E)-3-{8-[(E)-2-(4-Isopropyl-1,3-thiazol-2-yl)-1-ethenyl]-4-oxo-2-(tetrahydro-3-furanylmethoxy)-4H-pyrido[1,2-a]pyrimidin-3-yl}-2-propenoic acid]",MPC8 AZT,[2],4 µg/mL
same,MPC4 LVFX,[2],1 µg/mL
same,MPC8 LVFX,[2],4 µg/mL
CC(C)c1csc(CCc2ccn3c(=O)c(/C=C/C(=O)O)c(N4CCCC(O)C4)nc3c2)n1 (centres unmarked) [Example 26],FIC index,[3]; LVFX + MEPM 0.016 μg/ml + compound of Example 26 0.625 μg/ml,1.039
same,FIC index,[3]; LVFX + MEPM 0.016 μg/ml + compound of Example 26 1.25 μg/ml,1.047
same,FIC index,[3]; LVFX + MEPM 0.016 μg/ml + compound of Example 26 2.5 μg/ml,1.063
same,FIC index,[3]; LVFX + MEPM 0.016 μg/ml + compound of Example 26 5 μg/ml,0.594
same,FIC index,[3]; LVFX + MEPM 0.016 μg/ml + compound of Example 26 10 μg/ml,0.656
same,FIC index,[3]; LVFX + MEPM 0.016 μg/ml + compound of Example 26 20 μg/ml,0.781
same,FIC index,[3]; LVFX + MEPM 0.016 μg/ml + compound of Example 26 40 μg/ml,1.031
same,FIC index,[3]; LVFX + MEPM 0.0313 μg/ml + compound of Example 26 0.625 μg/ml,1.07
same,FIC index,[3]; LVFX + MEPM 0.0313 μg/ml + compound of Example 26 1.25 μg/ml,1.078
same,FIC index,[3]; LVFX + MEPM 0.0313 μg/ml + compound of Example 26 2.5 μg/ml,0.5938
same,FIC index,[3]; LVFX + MEPM 0.0313 μg/ml + compound of Example 26 5 μg/ml,0.625
same,FIC index,[3]; LVFX + MEPM 0.0313 μg/ml + compound of Example 26 10 μg/ml,0.6875
same,FIC index,[3]; LVFX + MEPM 0.0313 μg/ml + compound of Example 26 20 μg/ml,0.8125
same,FIC index,[3]; LVFX + MEPM 0.0313 μg/ml + compound of Example 26 40 μg/ml,1.0625
same,FIC index,[3]; LVFX + MEPM 0.0625 μg/ml + compound of Example 26 0.625 μg/ml,1.133
same,FIC index,[3]; LVFX + MEPM 0.0625 μg/ml + compound of Example 26 1.25 μg/ml,0.641
same,FIC index,[3]; LVFX + MEPM 0.0625 μg/ml + compound of Example 26 2.5 μg/ml,0.656
same,FIC index,[3]; LVFX + MEPM 0.0625 μg/ml + compound of Example 26 5 μg/ml,0.438
same,FIC index,[3]; LVFX + MEPM 0.0625 μg/ml + compound of Example 26 10 μg/ml,0.500
same,FIC index,[3]; LVFX + MEPM 0.0625 μg/ml + compound of Example 26 20 μg/ml,0.500
same,FIC index,[3]; LVFX + MEPM 0.0625 μg/ml + compound of Example 26 40 μg/ml,0.750
same,FIC index,[3]; LVFX + MEPM 0.125 μg/ml + compound of Example 26 0.625 μg/ml,0.781
same,FIC index,[3]; LVFX + MEPM 0.125 μg/ml + compound of Example 26 1.25 μg/ml,0.563
same,FIC index,[3]; LVFX + MEPM 0.125 μg/ml + compound of Example 26 2.5 μg/ml,0.500
same,FIC index,[3]; LVFX + MEPM 0.125 μg/ml + compound of Example 26 5 μg/ml,0.563
same,FIC index,[3]; LVFX + MEPM 0.125 μg/ml + compound of Example 26 10 μg/ml,0.766
same,FIC index,[3]; LVFX + MEPM 0.25 μg/ml + compound of Example 26 0.625 μg/ml,1.063
same,MIC,"[3]; Pseudomonas aeruginosa, agent used alone, PAM 1020 strain",≥ 80 µg/mL
same,MPC8 AZT,[2],1 µg/mL
same,MPC4 LVFX,[2],0.25 µg/mL
same,MPC8 LVFX,[2],1 µg/mL
"CC(C)(C)c1csc(NC(=O)c2ccn3c(=O)c(-c4nnn[nH]4)cnc3c2)n1 [Example 10, N8-[4-(tert-Butyl)-1,3-thiazol-2-yl]-4-oxo-3-(2H-1,2,3,4-tetrazol-5-yl)-4H-pyrido[1,2-a]pyrimidine-8-carboxamide]",MPC8 AZT,[2],4 µg/mL
same,MPC4 LVFX,[2],2 µg/mL
same,MPC8 LVFX,[2],16 µg/mL
"CC(C)c1csc(CCc2ccn3c(=O)c(/C=C/C(=O)O)c(SCC(N)=O)nc3c2)n1 [Example 152, (E)-3-{2-Aminocarbonylmethylthio-8-[2-(4-isopropyl-1,3-thiazol-2-yl)-ethyl]-4-oxo-4H-pyrido[1,2-a]pyrimidin-3-yl}-2-propenoic acid]",MPC8 AZT,[2],4 µg/mL
same,MPC4 LVFX,[2],2 µg/mL
same,MPC8 LVFX,[2],8 µg/mL
"CCn1cc(-c2nn[nH]n2)c(=O)c2ccc(/C=C/c3nc(C(C)C)cs3)nc21 [Example 155, 1-Ethyl-7-[(E)-2-(4-isopropyl-1,3-thiazol-2-yl)-1-ethenyl]-3-(1H-1,2,3,4-tetrazol-5-yl)-1,4-dihydro[1,8]naphthylidin-4-one]",MPC8 AZT,[2],2 µg/mL
same,MPC4 LVFX,[2],0.25 µg/mL
same,MPC8 LVFX,[2],2 µg/mL
"CC(C)c1csc(/C=C/c2ccn3c(=O)c(/C=C/c4nnn[nH]4)c(N4CCCC(O)C4)nc3c2)n1 (centres unmarked) [Example 104, 2-(3-Hydroxypiperidino)-8-[(E)-2-(4-isopropyl-1,3-thiazol-2-yl)-1-ethenyl]-3-[(E)-2-(1H-1,2,3,4-tetrazol-5-yl)-1-ethenyl]-4H-pyrido[1,2-a]pyrimidin-4-one]",MPC8 AZT,[2],0.5 µg/mL
same,MPC4 LVFX,[2],0.24 µg/mL
same,MPC8 LVFX,[2],1 µg/mL
